Measurements: PubChem BioAssay (NCI)
“And” between values parts separate entries of the source, which are not always exact repeats. Equal values may be shown once.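 Dose response: 5 concentrations. Exposure: 48 h. Format: 96-well plates. Endpoint: linear interpolation; highest concentration if not reached. At the GI50, growth is halved. Definition used: TGI = concentration required for complete inhibition of growth.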

Key:
Assay in all cases: inhibition of tumour cell growth, NCI panel, 48 h
SF-295 CNS = test system: SF-295 CNS
RXF 393 renal = test system: RXF 393 renal
UACC-257 melanoma = test system: UACC-257 melanoma
SNB-75 CNS = test system: SNB-75 CNS
HL-60(TB) leukemia = test system: HL-60(TB) leukemia
SN12C renal = test system: SN12C renal
SK-OV-3 ovarian = test system: SK-OV-3 ovarian
NCI-H226 lung = test system: NCI-H226 lung
EKVX NSCLC = test system: EKVX NSCLC

| SMILES | GI50 (SF-295 CNS) | TGI (SF-295 CNS) | GI50 (RXF 393 renal) | TGI (RXF 393 renal) | GI50 (UACC-257 melanoma) | TGI (UACC-257 melanoma) | GI50 (SNB-75 CNS) | TGI (SNB-75 CNS) | GI50 (HL-60(TB) leukemia) | TGI (HL-60(TB) leukemia) | GI50 (SN12C renal) | TGI (SN12C renal) | GI50 (SK-OV-3 ovarian) | TGI (SK-OV-3 ovarian) | GI50 (NCI-H226 lung) | TGI (NCI-H226 lung) | GI50 (EKVX NSCLC) | TGI (EKVX NSCLC) |
| --- | --- | --- | --- | --- | --- | --- | --- | --- | --- | --- | --- | --- | --- | --- | --- | --- | --- | --- |
| CN(C)c1ccc([O-])cc1.CN(C)c1ccc([O-])cc1.CN(C)c1ccc([O-])cc1.CN(C)c1ccc([O-])cc1.[Ti+4] | > 100 µM | > 100 µM | 59 µM | > 100 µM | > 100 µM | > 100 µM | 27.2 µM | > 100 µM | 27.5 µM | > 100 µM | > 100 µM | > 100 µM | > 100 µM | > 100 µM | > 100 µM | > 100 µM | > 100 µM | > 100 µM |
| O=C(O)COc1ccc(O)c2c1C(=O)CCCC2=O | – | > 100 µM | – | – | – | > 100 µM | – | – | – | > 100 µM | – | > 100 µM | – | > 100 µM | – | – | – | > 100 µM |
| O=C([CH-]C(=O)c1ccccc1)c1ccccc1.O=C([CH-]C(=O)c1ccccc1)c1ccccc1.O=C([CH-]C(=O)c1ccccc1)c1ccccc1.[Nd+3].[OH3+] | 2.07 µM | 13.5 µM | – | – | 7.84 µM | 24.6 µM | 2.91 µM | 7.23 µM | 1.5 µM | 4.99 µM | 11.1 µM | 68.8 µM | 5.58 µM | 29.3 µM | – | – | 2.8 µM | 13.9 µM |
| CC1CC#CCOC(=O)CCCC1=O (stereo unspecified) | – | > 100 µM | – | > 100 µM | – | – | – | > 100 µM | – | > 100 µM | – | > 100 µM | – | > 100 µM | – | > 100 µM | – | – |
| C/C(=N\O)c1cccc(Nc2cc(-n3ccnn3)c3ccccc3n2)c1 | 18.5 µM | 47.8 µM | 13.6 µM | 39.8 µM | 12.9 µM | 27.9 µM | – | – | – | – | 15.4 µM | 34 µM | 30.6 µM | > 100 µM | 0.388 µM | 9.35 µM | 19 µM | 76.1 µM |
| COC(=O)C1C(O)CC(c2ccccn2)N(Cc2ccccc2)C1c1ccccn1 (stereo unspecified) | – | > 100 µM | – | > 100 µM | – | > 100 µM | – | > 100 µM | – | 65.1 µM | – | > 100 µM | – | > 100 µM | – | > 100 µM | – | > 100 µM |
| OC1c2ccccc2C2(O)C1C(c1ccccc1)C(c1ccccc1)C2(O)c1ccccc1 (stereo unspecified) | – | 25.5 µM | – | 76.2 µM | – | 29.7 µM | – | 46.2 µM | – | 31.9 µM | – | 32.9 µM | – | 64 µM | – | – | – | 70.8 µM |
| Oc1cc(O)c(Oc2cccc(O)c2O)c(O)c1 | – | > 100 µM | – | > 100 µM | – | > 100 µM | – | > 100 µM | – | > 100 µM | – | > 100 µM | – | > 100 µM | – | – | – | > 100 µM |
| C1C[OH+]CC[OH+]CCNCC[OH+]CC[OH+]CCN1.[Cl-].[Pt+4] | > 100 µM | > 100 µM | – | – | > 100 µM | > 100 µM | > 100 µM | > 100 µM | – | – | > 100 µM | > 100 µM | > 100 µM | > 100 µM | > 100 µM | > 100 µM | > 100 µM | > 100 µM |
| COc1ccc2c(c1)/C(=C\c1cccnc1)C(=O)N2 | 13.4 µM | 60.4 µM | 13.4 µM | 37 µM | 14.8 µM | 31.8 µM | 27.9 µM | 68.1 µM | 24.7 µM | > 100 µM | 7.38 µM | 29.4 µM | 20.3 µM | 46.5 µM | 7.38 µM | 23.6 µM | 3.79 µM | 25.2 µM |
| COc1ccc(NC(=O)C(=O)Cc2nc3ccc([N+](=O)[O-])cc3[nH]c2=O)c(OC)c1 | – | > 100 µM | – | > 100 µM | – | > 100 µM | – | > 100 µM | – | > 100 µM | – | – | – | > 100 µM | – | > 100 µM | – | > 100 µM |
| O=C(c1ccc(Cl)cc1)c1ccc(OCCCCCCCCCCOc2ccc(C(=O)c3ccc(Cl)cc3)cc2)cc1 | – | > 100 µM | – | > 100 µM | – | > 100 µM | – | > 100 µM | – | > 100 µM | – | > 100 µM | – | > 100 µM | – | > 100 µM | – | > 100 µM |
| O=C(/C=C/c1ccccc1)CC1OC(=O)c2ccccc21 (stereo unspecified) | – | > 100 µM | – | > 100 µM | – | > 100 µM | – | > 100 µM | – | > 100 µM | – | – | – | > 100 µM | – | 83.1 µM | – | > 100 µM |
| Clc1ccc(Cc2nc3ccccc3s2)c(Cl)c1 | – | 31.8 µM | – | 36 µM | – | 34.8 µM | – | 34.5 µM | – | 35.3 µM | – | 30.3 µM | – | 43.3 µM | – | 39.1 µM | – | 42.1 µM |
| COc1ccc2c(c1)C(=O)c1c-2n(CCCN=[N+]=[N-])c(=O)c2cc(N(C)C)ccc12 | > 100 µM | > 100 µM | 5.16 µM | 80.8 µM | > 100 µM | > 100 µM | 7.21 µM | 56.2 µM | > 100 µM | > 100 µM | > 100 µM | > 100 µM | > 100 µM | > 100 µM | > 100 µM | > 100 µM | > 100 µM | > 100 µM |
| CC(=O)Nc1ccc(C(=O)NN2C(=O)C(Cl)C2c2ccc([N+](=O)[O-])cc2)cc1 (stereo unspecified) | – | > 100 µM | – | > 100 µM | – | > 100 µM | – | > 100 µM | – | > 100 µM | – | > 100 µM | – | > 100 µM | – | > 100 µM | – | > 100 µM |
| CCCNCCCC(NC(C)=O)C(=O)NCc1ccccc1 (stereo unspecified) | – | > 100 µM | – | > 100 µM | – | > 100 µM | – | > 100 µM | – | – | – | > 100 µM | – | > 100 µM | – | > 100 µM | – | > 100 µM |
| C=CC1[C@H]2COC(C)(C)O[C@@H]2CC(=O)C1(C)C (stereo partly specified) | – | > 100 µM | – | > 100 µM | – | > 100 µM | – | > 100 µM | – | > 100 µM | – | > 100 µM | – | – | – | > 100 µM | – | > 100 µM |
| O=[N+]([O-])c1ccc(S(=O)Cc2ccccc2)c([N+](=O)[O-])c1 (stereo unspecified) | 13.2 µM | 26.9 µM | 1.45 µM | 2.78 µM | 1.76 µM | 3.96 µM | 12 µM | 25.2 µM | 2.21 µM | 5.2 µM | 11.6 µM | 33.1 µM | 16.4 µM | 30 µM | 2.27 µM | 5.3 µM | 12.8 µM | 26.6 µM |
| CCc1cccc(C(C)C)c1NC(=O)C(=O)CC(=O)c1c(C)n([O-])c2ccccc2[n+]1=O | – | – | – | > 100 µM | – | – | – | > 100 µM | – | > 100 µM | – | > 100 µM | – | > 100 µM | – | > 100 µM | – | > 100 µM |
| CC[C@@]1(O)C[C@H](OC2CC(N(C)C)C(OC3CC(O)C(OC4CCC(=O)C(C)O4)C(C)O3)C(C)O2)c2c(cc3c(c2O)C(=O)c2c(O)cccc2C3=O)[C@H]1C(=O)OC (stereo partly specified) | – | 0.224 µM and 0.92 µM | – | 0.0345 µM and 0.124 µM | – | 0.179 µM and 0.26 µM | – | – | 0.00866 µM and 0.0039 µM | 0.0613 µM and 0.177 µM | – | – | – | 1.31 µM and 5.14 µM | – | 0.0948 µM and 0.13 µM | – | 0.415 µM and 0.452 µM |
| O=c1[nH]c(=O)n([C@@H]2C[C@H](CO)[C@H](O)C2)cc1/C=C/Br | – | > 100 µM | – | – | – | > 100 µM | – | > 100 µM | – | > 100 µM | – | – | – | > 100 µM | – | > 100 µM | – | > 100 µM |
| CS(=O)(=O)OCCN1CCN(C(=O)c2cccc3c(Nc4ccc(S(=O)(=O)N=C(N)N)cc4)c4ccccc4nc23)CC1 | – | > 100 µM | – | > 100 µM | – | > 100 µM | – | > 100 µM | – | > 100 µM | – | > 100 µM | – | > 100 µM | – | > 100 µM | – | – |
| CC(=O)NNc1nc(C)c(C(=O)NNC(=O)C(=O)Nc2c(C)cccc2C)s1 | – | > 100 µM | – | 88.2 µM | – | > 100 µM | – | > 100 µM | – | 77.6 µM | – | > 100 µM | – | > 100 µM | – | > 100 µM | – | > 100 µM |
| Cc1c(S(C)(=O)=O)c(-c2cc(F)cc(N3CCN(c4ccc(NS(=O)(=O)c5ccc(N[C@H](CCN6CCC(C(=O)OCCCP(=O)(O)O)CC6)CSc6ccccc6)c(S(=O)(=O)C(F)(F)F)c5)cc4)CC3)c2)c(-c2ccc(Cl)cc2)n1C(C)C | > 100 µM | > 100 µM | > 100 µM | > 100 µM | > 100 µM | > 100 µM | > 100 µM | > 100 µM | – | – | > 100 µM | > 100 µM | > 100 µM | > 100 µM | > 100 µM | > 100 µM | > 100 µM | > 100 µM |
| COc1ccc(-c2cc(=O)c3c(C)cc(C)nc3[nH]2)cc1 | 42.5 µM | > 100 µM | – | > 100 µM | – | 85.3 µM | – | – | – | 35.4 µM | – | > 100 µM | – | > 100 µM | – | > 100 µM | – | > 100 µM |
| CCCCCCCCCCCCCCN | – | > 100 µM | – | > 100 µM | – | > 100 µM | – | > 100 µM | – | > 100 µM | – | > 100 µM | – | > 100 µM | – | – | – | > 100 µM |
| O=C(Nc1cccc([N+](=O)[O-])c1)C(=O)C(C(=O)c1ccccc1-c1ccccc1)C1OC(=O)c2ccccc21 (stereo unspecified) | – | 66.5 µM | – | 28.5 µM | – | 93.4 µM | – | 64.8 µM | – | 56.5 µM | – | – | – | > 100 µM | – | 25.9 µM | – | 59.1 µM |
| Cn1nc(-c2ccccc2)c(C(=O)/C=C/c2ccc(F)cc2)c(N2CCCCC2)c1=O | – | – | – | 9.86 µM | – | – | – | – | – | 3.28 µM | – | > 100 µM | – | 70.1 µM | – | – | – | 72.3 µM |
